What all share (format): in vivo
Details in all cases: 1000 g/ha, evaluated after 13 days

Test [1] deals with Setaria faberi (SETFA). The experiment in a line: Pre-emergence Test.
The test system of test [2] is Abutilon theophrasti (ABUTH). Description: Pre-emergence Test.
In test [3] the test system is Zea mays (ZEAMX). The experiment in a line: Pre-emergence Test.
Test [4] deals with Ipomoea hederacea (IPOHE). Description: Pre-emergence Test.
Test [5] concerns Setaria faberi (SETFA). The experiment in a line: Post-emergence Test. The method, then:
(§1) Seeds of a variety of test species are sown in standard soil in pots (Abutilon theophrasti (ABUTH), Ipomoea hederacea (IPOHE). Setaria faberi (SETFA), Echinochloa crus-galli (ECHCG), Zea mays (ZEAMX), Amaranthus retoflexus (AMARE), Solanum nigrum (SOLNI), Lolium perenne (LOLPE), Amaranthus palmeri (AMAPA)). After 8 days cultivation under controlled conditions in a glasshouse (at 24° C./16° C., day/night-; 14 hours light; 65% humidity), the plants are sprayed with an aqueous spray solution derived from the formulation of the technical active ingredient in acetone/water (50:50) solution containing 0.5% Tween 20 (polyoxyethylene sorbitan monolaurate, CAS RN 9005-64-5). Compounds are applied at 1000 g/ha unless otherwise stated. The test plants are then grown in a glasshouse under controlled conditions in a glasshouse (at 24° C./16° C., day/night; 14 hours light; 65% humidity) and watered twice daily. After 13 days the test is evaluated for the percentage damage caused to the plant. The biological activities are shown in the following table on a five-point scale (5=81-100%; 4=61-80%; 3=41-60%; 2=21-40%; 1=0-20%; -=not tested).

The test system of test [6] is Amaranthus retoflexus (AMARE). The experiment in a line: Post-emergence Test. Here is the method:
as §1

The test system of test [7] is Zea mays (ZEAMX). Description: Post-emergence Test. Here is the method: as §1
Test [8] deals with Ipomoea hederacea (IPOHE). Description: Post-emergence Test. The method, then: as §1
For test [9], the system named is Echinochloa crus-galli (ECHCG). Description: Post-emergence Test. The method, then: as §1
For test [10], the system named is Echinochloa crus-galli (ECHCG). The experiment in a line: Pre-emergence Test.
The subject of test [11] is Lolium perenne (LOLPE). The experiment in a line: Pre-emergence Test.
For test [12], the system named is Amaranthus retoflexus (AMARE). Description: Pre-emergence Test.
In test [13] the test system is Solanum nigrum (SOLNI). The experiment in a line: Pre-emergence Test.
Test [14] deals with Abutilon theophrasti (ABUTH). Description: Post-emergence Test. The method, then: as §1
In test [15] the test system is Solanum nigrum (SOLNI). The experiment in a line: Post-emergence Test. The method, then: as §1
Test [16] has as its system Lolium perenne (LOLPE). The experiment in a line: Post-emergence Test. Here is the method: as §1
Test [17] has as its system Amaranthus palmeri (AMAPA). The experiment in a line: Pre-emergence Test.
Test [18] deals with Amaranthus palmeri (AMAPA). Description: Post-emergence Test. The method, then: as §1

Results on 8 molecules are retold here after patent US20260001847A1, “HERBICIDAL QUINOLONE DERIVATIVES” (SYNGENTA CROP PROTECTION AG, priority 2022, published 2026).

On to `CCn1c(-c2ccc(Cl)c(Cl)c2)c(C(=O)O)c(=O)c2ccc(OC)cc21` [Compound 1, 2-(3,4-dichlorophenyl)-1-ethyl-7-methoxy-4-oxo-quinoline-3-carboxylic acid], for which the “percentage damage caused to the plant, SETFA” value in test [1] and in test [5] was 2 (2=21-40%) in each case. Moreover, the “percentage damage caused to the plant, ABUTH” value in test [2] is reported as 3 (3=41-60%). Also, the “percentage damage caused to the plant, ZEAMX” value is 1 (1=0-20%) in test [3] and 0 in test [7]. For the same molecule, the “percentage damage caused to the plant, IPOHE” value in test [4] is 2 (2=21-40%); in [8] it was 3 (3=41-60%). In addition, the “percentage damage caused to the plant, AMARE” value in test [6] worked out at 0. In addition, the “percentage damage caused to the plant, ECHCG” value in test [9] and in test [10] was 1 (1=0-20%) in each case.

Regarding `CCn1c(-c2ccc(Cl)c(Cl)c2)c(C(=O)O)c(=O)c2c(C(F)(F)F)cccc21` [Compound 2, 2-(3,4-dichlorophenyl)-1-ethyl-4-oxo-5-(trifluoromethyl)quinoline-3-carboxylic acid], the “percentage damage caused to the plant, SETFA” value in test [1] is given as 5 (5=81-100%); in test [5], 4 (4=61-80%). The “percentage damage caused to the plant, LOLPE” value was 0 in [11] and 1 (1=0-20%) in test [16]. The results for the “percentage damage caused to the plant, ABUTH” value in test [2] and in test [14] were 2 (2=21-40%) and 3 (3=41-60%), respectively. The “percentage damage caused to the plant, ZEAMX” value in [3] is listed as 1 (1=0-20%); in [7], 3 (3=41-60%). The “percentage damage caused to the plant, IPOHE” value is recorded as 2 (2=21-40%) in test [4] and 3 (3=41-60%) in test [8]. In addition, the “percentage damage caused to the plant, AMARE” value in test [12] and in [6] was 2 (2=21-40%) throughout. The “percentage damage caused to the plant, SOLNI” value in test [13] and in test [15] was 2 (2=21-40%) in each case. The “percentage damage caused to the plant, ECHCG” value in test [9] and in test [10] was 5 (5=81-100%) throughout.

In the case of `CCn1c(-c2ccc(Cl)c(Cl)c2)c(C(=O)O)c(=O)c2cc(Br)ccc21` [Compound 8, 6-bromo-2-(3,4-dichlorophenyl)-1-ethyl-4-oxo-quinoline-3-carboxylic acid], the “percentage damage caused to the plant, AMAPA” value in [17] was 2 (2=21-40%); in [18], 1 (1=0-20%). The entries for the “percentage damage caused to the plant, SETFA” value in [1] and in test [5] were 5 (5=81-100%) and 4 (4=61-80%), respectively. Besides, the entries for the “percentage damage caused to the plant, ZEAMX” value in [3] and in [7] were 2 (2=21-40%) and 4 (4=61-80%), respectively. In addition, the “percentage damage caused to the plant, IPOHE” value in test [4] is on record as 1 (1=0-20%); in test [8] it was 4 (4=61-80%). In addition, the “percentage damage caused to the plant, AMARE” value in [12] is 1 (1=0-20%); in [6] it was 0. The figures for the “percentage damage caused to the plant, ECHCG” value in test [9] and in test [10] were 4 (4=61-80%) and 5 (5=81-100%), respectively.

Regarding `CCn1c(-c2ccc(Cl)c(Cl)c2)c(C(=O)O)c(=O)c2cc(SC)ccc21` [Compound 11, 2-(3,4-dichlorophenyl)-1-ethyl-6-methylsulfanyl-4-oxo-quinoline-3-carboxylic acid], the “percentage damage caused to the plant, AMAPA” value in [17] and in test [18] was 3 (3=41-60%) in each case. For the same molecule, the “percentage damage caused to the plant, SETFA” value is 5 (5=81-100%) in test [1] and 3 (3=41-60%) in test [5]. The “percentage damage caused to the plant, ZEAMX” value in test [3] and in test [7] was 2 (2=21-40%) throughout. Further, the “percentage damage caused to the plant, IPOHE” value in test [4] and in [8] was 1 (1=0-20%) each time. Besides, the “percentage damage caused to the plant, AMARE” value is 1 (1=0-20%) in test [12] and 2 (2=21-40%) in test [6]. Besides, the “percentage damage caused to the plant, ECHCG” value is reported as 4 (4=61-80%) in test [9] and 5 (5=81-100%) in test [10].

`CCn1c(-c2ccc(Cl)c(Cl)c2)c(C(=O)O)c(=O)c2cc(S(C)(=O)=O)ccc21` [Compound 12, 2-(3,4-dichlorophenyl)-1-ethyl-6-methylsulfonyl-4-oxo-quinoline-3-carboxylic acid]: the “percentage damage caused to the plant, AMAPA” value in test [17] is 3 (3=41-60%); in test [18] it was 2 (2=21-40%). The entries for the “percentage damage caused to the plant, SETFA” value in test [1] and in [5] were 5 (5=81-100%) and 3 (3=41-60%), respectively. The “percentage damage caused to the plant, ZEAMX” value in test [3] and in test [7] was 1 (1=0-20%) in each case. In addition, the “percentage damage caused to the plant, IPOHE” value in test [4] is recorded as 1 (1=0-20%); in [8], 2 (2=21-40%). Moreover, the “percentage damage caused to the plant, AMARE” value in test [12] and in test [6] was 3 (3=41-60%) in each case. Also, the figures for the “percentage damage caused to the plant, ECHCG” value in [9] and in test [10] were 4 (4=61-80%) and 5 (5=81-100%), respectively.

For the molecule `CCn1c(-c2ccc(Cl)c(Cl)c2)c(C(=O)O)c(=O)c2cc(C)ccc21` [Compound 14, 2-(3,4-dichlorophenyl)-1-ethyl-6-methyl-4-oxo-quinoline-3-carboxylic acid], the “percentage damage caused to the plant, AMAPA” value in test [17] and in [18] was 5 (5=81-100%) throughout. Also, the “percentage damage caused to the plant, SETFA” value in [1] is 4 (4=61-80%); in [5], 3 (3=41-60%). For the same molecule, the “percentage damage caused to the plant, ZEAMX” value in test [3] and in test [7] was 2 (2=21-40%) in each case. Moreover, the “percentage damage caused to the plant, IPOHE” value in [4] is 2 (2=21-40%); in [8], 3 (3=41-60%). For the same molecule, the “percentage damage caused to the plant, AMARE” value in test [12] and in test [6] was 5 (5=81-100%) in each case. Further, the entries for the “percentage damage caused to the plant, ECHCG” value in test [9] and in test [10] were 3 (3=41-60%) and 4 (4=61-80%), respectively.

For the molecule `CCn1c(-c2ccc(Cl)c(Cl)c2)c(C(=O)O)c(=O)c2cc(OC)ccc21` [Compound 15, 2-(3,4-dichlorophenyl)-1-ethyl-6-methoxy-4-oxo-quinoline-3-carboxylic acid], the entries for the “percentage damage caused to the plant, AMAPA” value in test [17] and in test [18] were 3 (3=41-60%) and 2 (2=21-40%), respectively. Moreover, the “percentage damage caused to the plant, SETFA” value in test [1] is 5 (5=81-100%); in test [5], 2 (2=21-40%). Also, the “percentage damage caused to the plant, ZEAMX” value in test [3] and in [7] was 1 (1=0-20%) in each case. Moreover, the “percentage damage caused to the plant, IPOHE” value in [4] and in test [8] was 2 (2=21-40%) in each case. In addition, the “percentage damage caused to the plant, AMARE” value in test [12] is 3 (3=41-60%); in test [6], 2 (2=21-40%). The “percentage damage caused to the plant, ECHCG” value in test [9] is given as 3 (3=41-60%); in [10], 4 (4=61-80%).

As for `CCn1c(-c2ccc(F)cc2)c(C(=O)O)c(=O)c2ccccc21` [Compound 18, 1-ethyl-2-(4-fluorophenyl)-4-oxo-quinoline-3-carboxylic acid], the “percentage damage caused to the plant, AMAPA” value in test [17] and in [18] was 1 (1=0-20%) in each case. Besides, the results for the “percentage damage caused to the plant, SETFA” value in test [1] and in test [5] were 3 (3=41-60%) and 1 (1=0-20%), respectively. In addition, the entries for the “percentage damage caused to the plant, ZEAMX” value in test [3] and in test [7] were 0 and 1 (1=0-20%), respectively. Further, the “percentage damage caused to the plant, IPOHE” value in test [4] and in [8] was 0 throughout. Besides, the “percentage damage caused to the plant, AMARE” value in [12] and in test [6] was 1 (1=0-20%) each time. Also, the figures for the “percentage damage caused to the plant, ECHCG” value in test [9] and in test [10] were 1 (1=0-20%) and 2 (2=21-40%), respectively.
